Assay results published in the supplement of paper PMC11208160.

Assay: recombinant barcode read abundance after kanamycin selection (control-corrected) (log10(CPM+1)); higher = more efficient recombination; sequences stand for … in AGTGCAGAGAAAATCGGCCAGTTTTCTCTGCCTGCAGTCCGCATGCCGT…AGATTTATGCAGCGGACTGCCTTTCTCCCAAAGTGATAAACCGGACAGTATCATGGACCGGTTTTCCCGGTAATCCGTATTTGCAAGGTTGGTTTCACT; site = the 11-nt target
Method in brief: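 Two replicates per condition were plated: chloramphenicol/ampicillin LB agar for the control, and chloramphenicol/ampicillin/kanamycin with 0.1 mM IPTG for selection. The pooled E. coli screen behind them paired targets with IS621 bridge RNA target-binding loops. Recombination efficiency is expressed from averaged, control-corrected barcode counts per million at recombinant junctions, as log10(CPM+1).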
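Note: IS621 recombinase and bridge RNA in Escherichia coli cells.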

| Sequence | recombinant barcode read abundance (log10) |
| --- | --- |
| CATTACTCTTGGGTTCTAACCTGTTGCTT (site CATTACTCTAA) | 0.622 |
| CATTACTCTTGGGTTCTAACCTGTTGCTT (site CTTTCCTCTAA) | 0.032 |
| CATTCACCTTGGGTTCTAACCTGTTGCCT (site AATTCACCTAG) | 0.153 |
| CATTCACCTTGGGTTCTAACCTGTTGCCT (site CATTCACCTAG) | 0.39 |
| CATTCACCTTGGGTTCTAACCTGTTGCCT (site GATTCACCTAG) | 0.0621 |
| CATTCACCTTGGGTTCTAACCTGTTGCCT (site TATTCACCTAG) | 0.111 |
| CATTTAGCTTGGGTTCTAACCTGTTGCGG (site AGGGCGCCTAA) | 0.0282 |
| CATTTAGCTTGGGTTCTAACCTGTTGCGG (site CATTTAGCTCC) | 1.06 |
| CATTTCCCTTGGGTTCTAACCTGTTGCCT (site CATTTCCCTAA) | 0.0164 |
| CATTTCCCTTGGGTTCTAACCTGTTGCCT (site CATTTCCCTAG) | 0.23 |
| CCAAATCCTTGGGTTCTAACCTGTTGCAT (site CCAAATCCTAT) | 0.189 |
| CCAAATCCTTGGGTTCTAACCTGTTGCAT (site TGTCTAGCTCC) | 0.697 |
| CCAAGCACTTGGGTTCTAACCTGTTGCCT (site CCAAGCACTAG) | 0.624 |
| CCAAGCACTTGGGTTCTAACCTGTTGCCT (site CCAAGCCCTAG) | 0.138 |
| CCAAGCACTTGGGTTCTAACCTGTTGCCT (site CCAAGCGCTAG) | 0.0822 |
| CCAAGCACTTGGGTTCTAACCTGTTGCCT (site CCAAGCTCTAG) | 0.172 |
| CCAAGGCCTTGGGTTCTAACCTGTTGCCG (site CCAAGGCCTCG) | 0.0466 |
| CCAAGGCCTTGGGTTCTAACCTGTTGCCG (site TTCGCATCTAA) | 0.208 |

| Sequence | recombinant barcode read abundance (log10) |
| --- | --- |
| CCAAGGGCTTGGGTTCTAACCTGTTGCGG (site CCAAGGGCTCA) | 0.628 |
| CCAAGGGCTTGGGTTCTAACCTGTTGCGG (site CCAAGGGCTCC) | 2.52 |
| CCAAGGGCTTGGGTTCTAACCTGTTGCGG (site CCAAGGGCTCG) | 0.094 |
| CCAAGGGCTTGGGTTCTAACCTGTTGCGG (site CCAAGGGCTCT) | 2.18 |
| CCAAGTACTTGGGTTCTAACCTGTTGCTT (site CCAAGTACTAA) | 0.387 |
| CCAAGTACTTGGGTTCTAACCTGTTGCTT (site CCACGAACTAA) | 0.106 |
| CCAATGTCTTGGGTTCTAACCTGTTGCGT (site CCAATGTCTAC) | 1.03 |
| CCAATGTCTTGGGTTCTAACCTGTTGCGT (site GTTCGTCCTTG) | 0.047 |
| CCACACACTTGGGTTCTAACCTGTTGCCT (site CAATACACTAG) | 0.0103 |
| CCACACACTTGGGTTCTAACCTGTTGCCT (site CCACACACTAG) | 0.345 |
| CCACCGACTTGGGTTCTAACCTGTTGCCT (site CCACCGACTAG) | 0.0699 |
| CCACCGACTTGGGTTCTAACCTGTTGCCT (site GCACCAACTAG) | 0.257 |
| CCACCGCCTTGGGTTCTAACCTGTTGCCT (site ACACCGCCTAG) | 0.0161 |
| CCACCGCCTTGGGTTCTAACCTGTTGCCT (site CCACCGCCTAG) | 0.139 |
| CCACCGCCTTGGGTTCTAACCTGTTGCCT (site GCACCGCCTAG) | 0.211 |
| CCACCGCCTTGGGTTCTAACCTGTTGCCT (site TCACCGCCTAG) | 0.0912 |
| CCACGTTCTTGGGTTCTAACCTGTTGCCT (site CCACGTTCTAG) | 0.181 |
| CCACGTTCTTGGGTTCTAACCTGTTGCCT (site CTACGTTCTAG) | 0.0541 |
